In US6989435B2, “Compounds and methods to inhibit or augment an inflammatory response” (Cambridge University Technical Services Ltd., priority 1997, dated 2006):

Assays:
[1] = test system: SDF-1α induced human monocyte migration; assay: Human monocyte migration, SDF-1α induced; assay type: cell-based; details: Table 4(c); 100 μM peptide; n.s. = no statistically significant inhibition
Protocol: Agents may also be screened in a chemotactic assay which employs human neutrophils, eosinophils, mast cells, basophils, platelets, lymphocytes or monocytes. For monocytes, 9 mls of fresh blood are transferred to a tube containing 1 ml of 3.8% sodium citrate, and left at room temperature for 15 minutes. Five mls of this anti-coagulated blood are carefully layered over 3.5 ml Polymorphprep® (Nycomed Pharma, Oslo), and centrifuged at 500 g for 35 minutes per the manufacturer's instructions. The top band at the sample/medium interface contains monocytes. The monocytes are carefully removed with a glass pipette, and reconstituted to the original volume (5 ml). The cells are washed with PBS plus 10% fetal calf serum, and centrifuged at 400 g for 10 minutes. The washing step is repeated three times before the cells are counted. Cells are resuspended at 1×10^7 cells/ml in RPMI-1640+10% fetal calf serum (FCS). The monocytes are cultured for two days at 37° C. in a humidified atmosphere of 5% CO2.
On day 2, the cells are counted, spun down, and reconstituted to 1×10^7 cells/ml in Gey's balanced salt solution+1 mg/ml bovine serum albumin (BSA). […]

[2] = target: T1, Duffy Antigen Receptor for Chemokines (DARC) (Homo sapiens, UniProt Q16570); assay: DARC binding: competition with 125I-labeled MCP-1 on red blood cells
T1 sequence (Q16570 1-336): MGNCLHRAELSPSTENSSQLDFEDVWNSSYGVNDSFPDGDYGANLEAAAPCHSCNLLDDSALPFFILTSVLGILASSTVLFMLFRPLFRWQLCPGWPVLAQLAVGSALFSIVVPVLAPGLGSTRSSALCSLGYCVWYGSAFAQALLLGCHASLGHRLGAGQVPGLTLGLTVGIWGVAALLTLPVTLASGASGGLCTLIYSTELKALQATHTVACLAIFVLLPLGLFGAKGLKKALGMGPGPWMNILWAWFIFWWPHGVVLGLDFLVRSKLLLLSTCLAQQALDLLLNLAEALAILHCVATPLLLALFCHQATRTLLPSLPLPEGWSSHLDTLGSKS

EICADPKQKWVQ [Peptide 3]
Extent of inhibition of human monocyte migration at 100 μM, SDF-1α [1]: 108% | DARC binding, in words [2]: low μM concentration range | DUFFY SELECTIVITY ([2]; Table 7, estimated ka for binding to red blood cells divided by average inhibitory ED50 versus each of the chemokines): 1.00
